Reference: patent publication US20250367283A1, “MEVALONATE PATHWAY INHIBITOR AS HIGHLY-EFFICIENT VACCINE ADJUVANT” (Tsinghua University, priority 2015, published 2025)

Assays:
[1] = target: HsGGPPS (humanized geranylgeranyl pyrophosphate synthase) (Homo sapiens (Human), UniProt O95749); assay: HsGGPPS enzyme inhibition test; format: biochemical
Protocol: The inhibitory activities of compounds TH-Z144 and TH-Z145 on GGPPS (geranylgeranyl pyrophosphate synthase) were tested by referring to the expression and purification method for HsGGPPS (humanized geranylgeranyl pyrophosphate synthase) in the reference (Szabo, C. M., et al., Inhibition of Geranylgeranyl Diphosphate Synthase by Bisphosphonates and Diphosphates: A Potential Route to New Bone Antiresorption and Antiparasitic Agents. Journal of Medicinal Chemistry, 2002. 45 (11): p. 2185-2196.) and the method for testing enzyme activity in the reference (Zhang, Y., et al., Lipophilic Bisphosphonates as Dual Farnesyl/Geranylgeranyl Diphosphate Synthase Inhibitors: An X-ray and NMR Investigation. Journal of the American Chemical Society, 2009. 131 (14): p. 5153-5162.) The data of the activity test were as follows: […]

[2] = test system: anti-OVA IgM and IgG antibodies; assay: Combined adjuvant effect of FPPS inhibitor and TLR agonist, OVA titer; format: in vivo, mice
Protocol: Two compounds, TH-Z93 and Imiquimod, were formulated at a concentration of 4 mg/ml, and OVA antigen at a concentration of 10 mg/ml. When used alone, 5 μl of TH-Z93 or imiquimod was added as an adjuvant and mixed with 10 μl of antigen and 5 μl of PBS. When two adjuvants were used in combination, each of the adjuvants were added in an amount of 5 μl and mixed with 10 μl of antigen, and the total volumes were 20 μl. The mice used are of C57B/6 strain. An equal volume of PBS without any adjuvant was used for mice in the control group. The mice was injected at the soles of the right feet. On Day 7 and Day 14 after immunization, blood was taken from the mice's orbits, and 100 μl was taken for each mouse. The obtained blood was left at 4° C. overnight, and then the serum was separated. The titers of anti-OVA IgM and IgG antibodies in the serum were determined.

Sequence of HsGGPPS (humanized geranylgeranyl pyrophosphate synthase) (O95749 whole entry, looked up): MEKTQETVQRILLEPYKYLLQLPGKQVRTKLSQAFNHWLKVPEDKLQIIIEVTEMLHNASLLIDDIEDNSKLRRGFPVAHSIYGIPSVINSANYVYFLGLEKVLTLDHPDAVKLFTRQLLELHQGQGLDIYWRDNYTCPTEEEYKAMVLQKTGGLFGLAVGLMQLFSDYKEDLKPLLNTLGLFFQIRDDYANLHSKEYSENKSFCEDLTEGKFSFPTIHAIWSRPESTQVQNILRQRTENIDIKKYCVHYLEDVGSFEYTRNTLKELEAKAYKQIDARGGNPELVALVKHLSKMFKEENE

Q: Which results are given for “(2-(3-(octyloxy)phenyl)ethane-1,1-diyl)bisphosphonic acid [TH-Z145]”?
A: IC50 (inhibition of GGPPS) [1]: effectively inhibit the activity of GGPPS; IC50 ([1]; read-out: IC50 (inhibition of GGPPS)): 0.66 µM

Q: For `CCCCCCOc1ccnc(NC(P(=O)(O)O)P(=O)(O)O)c1` [TH-Z93, (((4-(hexyloxy)pyridin-2-yl)amino)methylene)bisphosphonic acid], which “antibody titers vs PBS control, adjuvant used alone” value ([2]; soles of right feet) is on record?
A: significant high titers

Q: And the “antibody titers vs imiquimod alone” value ([2]; used alone)?
A: significantly superior to those of mice treated with imiquimod alone
